Like-named read-outs stand apart in the source and are kept apart here.

Consider eight molecules from patent US20240425478A1, “CYCLOPENTYLPYRAZOLE CDK2 INHIBITORS” (Genentech, Inc., priority 2021, published 2024).

Test [1] addresses T1, Cyclin Dependent Kinase 4/Cyclin D3 (CDK4-cycD3) (Homo sapiens, UniProt P11802).
T1 construct: purchased Carna Biosciences 04-105
Nature of the test: CDK4-cycD3 TR-FRET (LANCE) enzyme assay. To be noted: Table O, enzymatic assay. Format: biochemical. Put shortly:
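Compound dose responses pre-incubated 30 min with enzyme mix in 50 mM HEPES pH 7.5, 10 mM MgCl2, 2 mM TCEP, 0.05% BGG, 0.01% Brij 35. Reaction quenched with EDTA (15 mM final); Eu-anti-phospho-4E-BP1 TR-FRET detection, acceptor/donor ratio. Ki derived by Morrison equation.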

Another test relates to HCT116 cells. Nature of the test: p-H3 HCT-116 mitotic release cell proliferation assay (cellular CDK1). The class given is cell-based. To be noted: Homo sapiens, HCT-116; Table O, cellular assay; read-out: CDK1 p-H3 IC50. A digest of the protocol:
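HCT116 cells arrested 16 h with 500 nM nocodazole, then exposed to compound for 4 h at 37 °C (0.1% DMSO). Lysates read by HTRF/FRET with donor and acceptor phospho-Histone H3 (Ser10) antibodies, ≥2 h at room temperature; CDK1 inhibition seen as loss of p-H3 on mitotic release.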

Test [2] has as its target T2, Cyclin Dependent Kinase 2/Cyclin E1 (CDK2-cycE1) (Homo sapiens, UniProt P24941).
T2 construct: purchased ProQinase 0050-0055-1
Nature of the test: CDK2-cycE1 TR-FRET (LANCE) enzyme assay.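 As to improvement in potency against CDK2 (Ki) over Comparator C: fold lower CDK2 Ki than comparator c (Ki 0.032 µM).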 Format: biochemical. To be noted: for FS CDK1/CDK2 / FS CDK4/CDK2: fold selectivity; for increased fold-selectivity CDK4/CDK2 over Comparator C: (+) sign after FS CDK4/CDK2. A digest of the protocol:
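Compound dose responses pre-incubated 30 min with CDK2-cycE1 in 50 mM HEPES pH 7.5, 10 mM MgCl2, 2 mM TCEP, 0.05% BGG, 0.01% Brij 35. Reaction quenched with EDTA (15 mM final), phospho-MBP detected by Eu-anti-phospho-MBP TR-FRET (acceptor/donor ratio). Inhibition constants from Morrison equation.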

In test [3] the test system is OVISE (JCRB1043, CCNE1-amplified). Nature of the test: OVISE EdU incorporation cell proliferation assay (CDK2-dependent). Format: cell-based. To be noted: for IC50: cellular assay, read-out: CDK2 OVISE IC50; for FS SKOV-3/OVISE / FS p-H3/OVISE: fold selectivity; for FS p-H3/OVISE: cellular p-H3 IC50 over OVISE IC50; for increased fold-selectivity SKOV-3/OVISE over Comparator C: (+) sign after FS SKOV-3/OVISE; for improvement in CDK2 OVISE cell potency over Comparator C: in brackets after OVISE IC50, Comparator C 5.5 μM. A digest of the protocol: (§1)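 Cells in RPMI/10% FBS dosed with compound (0.5% DMSO final) for 16 h at 37 °C, 5% CO2, then EdU 0.5 μM final for 8 h before fixation and imaging. IC50 from 4-parameter logistic fit of EdU-positive cell fraction versus dose.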

The target of test [4] is T3, Cyclin Dependent Kinase 1/Cyclin A2 (CDK1-cycA2) (Homo sapiens, UniProt P06493).
T3 construct: purchased ProQinase 0134-0054-1
T3 sequence (P06493 whole entry): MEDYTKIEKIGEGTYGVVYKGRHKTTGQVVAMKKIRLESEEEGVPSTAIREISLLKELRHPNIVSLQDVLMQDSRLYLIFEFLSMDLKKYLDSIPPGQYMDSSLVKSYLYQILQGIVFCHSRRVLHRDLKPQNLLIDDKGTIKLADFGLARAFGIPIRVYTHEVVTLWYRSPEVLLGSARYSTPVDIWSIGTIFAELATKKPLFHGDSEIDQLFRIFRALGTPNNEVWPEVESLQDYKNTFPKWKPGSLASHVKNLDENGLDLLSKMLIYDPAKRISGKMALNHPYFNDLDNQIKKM
T3 sequence (P20248 whole entry partner): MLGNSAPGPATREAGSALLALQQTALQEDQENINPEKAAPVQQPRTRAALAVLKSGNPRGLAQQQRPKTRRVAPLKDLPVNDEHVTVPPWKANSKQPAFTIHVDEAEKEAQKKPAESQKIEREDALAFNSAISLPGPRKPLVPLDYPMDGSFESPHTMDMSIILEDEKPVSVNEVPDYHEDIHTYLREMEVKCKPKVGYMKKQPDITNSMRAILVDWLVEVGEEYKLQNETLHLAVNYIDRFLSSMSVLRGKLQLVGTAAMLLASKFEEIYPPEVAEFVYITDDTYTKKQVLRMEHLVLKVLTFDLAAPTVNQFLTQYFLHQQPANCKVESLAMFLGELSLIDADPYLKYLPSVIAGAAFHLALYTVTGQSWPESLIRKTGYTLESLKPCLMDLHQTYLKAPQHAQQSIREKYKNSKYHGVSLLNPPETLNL
Nature of the test: CDK1-cycA2 TR-FRET (Lance) enzyme assay. The class given is biochemical. To be noted: Table O, enzymatic assay. Put shortly:
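Human CDK1/cyclin A2 pre-incubated 30 min with compound dose responses in 50 mM HEPES pH 7.5, 10 mM MgCl2, 2 mM TCEP, 0.05% BGG, 0.01% Brij 35. Reaction quenched with EDTA (15 mM final); TR-FRET readout using Eu-anti-phospho-4E-BP1, acceptor/donor ratio. Inhibition constants from Morrison equation.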

Another test has as its system SKOV-3 (ATCC HTB-77). The test is described as follows: SKOV-3 EdU incorporation cell proliferation assay (CDK4/6-dependent). To be noted: Homo sapiens, cellular assay, read-out: CDK4/6 SKOV-3 IC50. Format: cell-based. A digest of the protocol: as §1
Where [5] appears, read: Table O, enzymatic assay, read-out: CDK2 Ki.
Setting [6] is: Table O, enzymatic CDK1 Ki over CDK2 Ki.
[7] abbreviates: Table O, enzymatic CDK4 Ki over CDK2 Ki.
[8] abbreviates: Table O, cellular SKOV-3 IC50 over OVISE IC50.
[9] abbreviates: Table Q, enzymatic assay, read-out: CDK2 Ki.

T1 sequence (P11802 whole entry): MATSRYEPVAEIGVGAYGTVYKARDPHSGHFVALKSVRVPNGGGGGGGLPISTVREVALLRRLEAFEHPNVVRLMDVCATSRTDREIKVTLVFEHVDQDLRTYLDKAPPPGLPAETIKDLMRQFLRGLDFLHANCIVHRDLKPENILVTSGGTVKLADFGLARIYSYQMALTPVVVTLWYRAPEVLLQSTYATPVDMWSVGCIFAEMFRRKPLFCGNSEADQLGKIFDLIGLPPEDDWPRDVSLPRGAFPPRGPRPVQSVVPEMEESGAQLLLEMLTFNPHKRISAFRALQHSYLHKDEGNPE
T1 sequence (P30281 whole entry partner): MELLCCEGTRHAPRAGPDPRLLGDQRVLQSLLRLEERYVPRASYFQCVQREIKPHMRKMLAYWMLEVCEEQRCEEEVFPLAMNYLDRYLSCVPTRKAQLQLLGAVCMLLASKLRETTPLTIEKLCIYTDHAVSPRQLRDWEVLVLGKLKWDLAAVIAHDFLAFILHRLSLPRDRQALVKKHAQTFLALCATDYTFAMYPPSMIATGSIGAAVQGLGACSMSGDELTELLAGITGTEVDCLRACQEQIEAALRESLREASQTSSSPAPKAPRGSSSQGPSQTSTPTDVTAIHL

`Cc1nc(S(C)(=O)=O)ccc1Nc1cc([C@H]2CC[C@@H](OC(=O)NC(C)(C)C)C2)[nH]n1` [Example 4L, (1R,3S)-3-(3-((2-methyl-6-(methylsulfonyl)pyridin-3-yl)amino)-1H-pyrazol-5-yl)cyclopentyl tert-butylcarbamate]: the Ki in test [1] worked out at 470 nM; in test [2] (setting [5]) it was 2.9 nM; in test [4], 95 nM. The IC50 turned out to be 310 nM in the test with HCT116 cells; 310 nM in test [3] (Table O); 16000 nM with SKOV-3 (ATCC HTB-77) (SK-OV-3, Table O). Moreover, in test [2] (setting [6]), the “FS CDK1/CDK2” value was 33. Moreover, the “FS CDK4/CDK2” value in test [2] (setting [7]) is given as 162. In test [3] (setting [8]), the “FS SKOV-3/OVISE” value is given as 52. Besides, in test [3] (Table O), the “FS p-H3/OVISE” value amounted to 1.
For `CC(C)(C)NC(=O)O[C@@H]1CC[C@H](c2cc(Nc3ccnc(CO)c3)n[nH]2)C1` [Example 10C, (1R,3S)-3-(3-((2-(hydroxymethyl)pyridin-4-yl)amino)-1H-pyrazol-5-yl)cyclopentyl tert-butylcarbamate], the Ki in test [1] is 51 nM; in test [2] (setting [5]), 1.8 nM; in test [4], 58 nM. The IC50 amounted to 180 nM in the test on HCT116 cells; 130 nM in test [3] (Table O); 5700 nM in the test on SKOV-3 (ATCC HTB-77) (SK-OV-3, Table O). The “FS CDK1/CDK2” value in test [2] (setting [6]) came to 32. Also, the “FS CDK4/CDK2” value in test [2] (setting [7]) was determined as 28. In test [3] (setting [8]), the “FS SKOV-3/OVISE” value turned out to be 44. In test [3] (Table O), the “FS p-H3/OVISE” value is listed as 1.4.
`CC(CC(F)(F)F)NC(=O)O[C@@H]1CC[C@H](c2cc(Nc3ccc(=O)n(C)n3)n[nH]2)C1` (stereo partly drawn) [Example 6D, (1R,3S)-3-(3-((1-methyl-6-oxo-1,6-dihydropyridazin-3-yl)amino)-1H-pyrazol-5-yl)cyclopentyl (4,4,4-trifluorobutan-2-yl)carbamate]: the Ki came to 61 nM in test [1], 0.21 nM in test [2] (setting [5]) and 3.6 nM in test [4]. Further, the IC50 came to 72 nM in the test with HCT116 cells; 77 nM in test [3] (Table O); 4300 nM with SKOV-3 (ATCC HTB-77) (SK-OV-3, Table O). In addition, the “FS CDK1/CDK2” value in test [2] (setting [6]) is 17. In addition, the “FS CDK4/CDK2” value in test [2] (setting [7]) amounted to 290. Besides, in test [3] (setting [8]), the “FS SKOV-3/OVISE” value came out at 56. The “FS p-H3/OVISE” value in test [3] (Table O) came to 0.94.
For `CC(C)NC(=O)O[C@@H]1CC[C@H](c2cc(Nc3ccnc(N(C)C)n3)n[nH]2)C1` [Example 2I, (1R,3S)-3-(3-((2-(dimethylamino)pyrimidin-4-yl)amino)-1H-pyrazol-5-yl)cyclopentyl isopropylcarbamate], the Ki was 27 nM in test [1]; 0.31 nM in test [2] (setting [5]); 0.31 nM in test [2] (setting [9]); at most 1 nM in test [2] (read-out: CDK2 activity / potency (enzymatic assay)); 6 nM in test [4]. For the same molecule, the IC50 worked out at 9.4 nM in the test with HCT116 cells; 67 nM in test [3] (Table O); 1000 nM in the test on SKOV-3 (ATCC HTB-77) (SK-OV-3, Table O); 1000 nM with SKOV-3 (ATCC HTB-77) (SK-OV-3, Table Q). The “improvement in potency against CDK2 (Ki) over Comparator C” value in test [2] was 103 fold. Further, the “FS CDK1/CDK2” value in test [2] (setting [6]) came to 19; in test [2] (Table Q, enzymatic), 19. In addition, the “FS CDK4/CDK2” value in test [2] (setting [7]) amounted to 87; in test [2] (Table Q, enzymatic) it was 87. Moreover, in test [2] (Table Q), the “increased fold-selectivity CDK4/CDK2 over Comparator C” value is recorded as “(+) (The (+) sign in Table Q signifies desirable increased fold-selectivity of the exemplary compounds over Comparator C)”. The “FS SKOV-3/OVISE” value in test [3] (setting [8]) is reported as 15; in test [3] (Table Q, cellular), 15. Also, the “FS p-H3/OVISE” value in test [3] (Table O) amounted to 0.14. Besides, in test [3] (Table Q), the “increased fold-selectivity SKOV-3/OVISE over Comparator C” value is recorded as “(+) (The (+) sign in Table Q signifies desirable increased fold-selectivity of the exemplary compounds over Comparator C)”. The “improvement in CDK2 OVISE cell potency over Comparator C” value in test [3] (Table Q) is given as 82 fold.
Take `CC(C)NC(=O)O[C@@H]1CC[C@H](c2cc(Nc3cncnc3)n[nH]2)C1` [Example 2B, (1R,3S)-3-(3-(pyrimidin-5-ylamino)-1H-pyrazol-5-yl)cyclopentyl isopropylcarbamate]: the Ki came out at 390 nM in test [1], 3.4 nM in test [2] (setting [5]), 3.4 nM in test [2] (setting [9]) and 160 nM in test [4]. Further, the IC50 in the test on HCT116 cells was 2900 nM; in test [3] (Table O), 230 nM; with SKOV-3 (ATCC HTB-77) (SK-OV-3, Table O), over 20000 nM; in the test with SKOV-3 (ATCC HTB-77) (SK-OV-3, Table Q) it was over 20000 nM. Moreover, the “improvement in potency against CDK2 (Ki) over Comparator C” value in test [2] worked out at 9 fold. Also, the “FS CDK1/CDK2” value turned out to be 47 in test [2] (setting [6]) and 47 in test [2] (Table Q, enzymatic). Further, the “FS CDK4/CDK2” value came to 120 in test [2] (setting [7]) and 120 in test [2] (Table Q, enzymatic). For the same molecule, the “increased fold-selectivity CDK1/CDK2 over Comparator C” value in test [2] (Table Q, (+) sign after FS CDK1/CDK2) is “(+) (The (+) sign in Table Q signifies desirable increased fold-selectivity of the exemplary compounds over Comparator C)”. The “increased fold-selectivity CDK4/CDK2 over Comparator C” value in test [2] (Table Q) is listed as “(+) (The (+) sign in Table Q signifies desirable increased fold-selectivity of the exemplary compounds over Comparator C)”. Further, the “FS SKOV-3/OVISE” value in test [3] (setting [8]) is on record as over 70; in test [3] (Table Q, cellular) it was over 70. In test [3] (Table O), the “FS p-H3/OVISE” value is reported as 1.1. Also, the “increased fold-selectivity SKOV-3/OVISE over Comparator C” value in test [3] (Table Q) is given as “(+) (The (+) sign in Table Q signifies desirable increased fold-selectivity of the exemplary compounds over Comparator C)”. Also, in test [3] (Table Q), the “improvement in CDK2 OVISE cell potency over Comparator C” value stood at 24 fold.
As to `CNC(=O)c1cc(C)c(Nc2cc([C@H]3CC[C@@H](OC(=O)NC45CC(C4)C5)C3)[nH]n2)cn1` [Example 9C, (1R,3S)-3-(3-((4-methyl-6-(methylcarbamoyl)pyridin-3-yl)amino)-1H-pyrazol-5-yl)cyclopentyl bicyclo[1.1.1]pentan-1-ylcarbamate], the Ki in test [1] was determined as 400 nM; in test [2] (setting [5]), 2 nM; in test [4] it was 190 nM. The IC50 came to 180 nM with HCT116 cells; 180 nM in test [3] (Table O); 9100 nM in the test with SKOV-3 (ATCC HTB-77) (SK-OV-3, Table O). Also, the “FS CDK1/CDK2” value in test [2] (setting [6]) worked out at 95. In addition, the “FS CDK4/CDK2” value in test [2] (setting [7]) was determined as 200. The “FS SKOV-3/OVISE” value in test [3] (setting [8]) stood at 51. In addition, the “FS p-H3/OVISE” value in test [3] (Table O) amounted to 1.0.
Turning to `CCn1nc(Nc2cc([C@H]3CC[C@@H](OC(=O)NC(C)C)C3)[nH]n2)ccc1=O` [Example 2HH, (1R,3S)-3-(3-((1-ethyl-6-oxo-1,6-dihydropyridazin-3-y1)amino)-1H-pyrazol-5-y1)cyclopenty1 isopropylcarbamate], the results for the Ki in test [1], in test [2] (setting [5]) and in test [4] were 210 nM, 0.43 nM and 6.9 nM, respectively. The IC50 worked out at 32 nM with HCT116 cells; 60 nM in test [3] (Table O); 4600 nM in the test on SKOV-3 (ATCC HTB-77) (SK-OV-3, Table O). In addition, the “FS CDK1/CDK2” value in test [2] (setting [6]) is listed as 16. The “FS CDK4/CDK2” value in test [2] (setting [7]) stood at 490. Also, the “FS SKOV-3/OVISE” value in test [3] (setting [8]) is 77. Further, the “FS p-H3/OVISE” value in test [3] (Table O) is on record as 0.53.
Consider `Cc1ncccc1Nc1cc([C@H]2CC[C@@H](OC(=O)NC3(C)COC3)C2)[nH]n1` [Example 8], for which the Ki in test [1] is 660 nM; in test [2] (setting [5]) it was 3.1 nM; in test [4] it was 160 nM. The IC50 in the test on HCT116 cells is 560 nM; in test [3] (Table O), 320 nM; in the test on SKOV-3 (ATCC HTB-77) (SK-OV-3, Table O) it was 15000 nM. For the same molecule, in test [2] (setting [6]), the “FS CDK1/CDK2” value is 52. The “FS CDK4/CDK2” value in test [2] (setting [7]) turned out to be 213. Also, the “FS SKOV-3/OVISE” value in test [3] (setting [8]) was determined as 47. Further, the “FS p-H3/OVISE” value in test [3] (Table O) was determined as 1.8.
